From patent US9877998B2, “Uses of hypoxia-inducible factor inhibitors” (OncoImmune, Inc., priority 2009, dated 2018)

Experiments:
[1] = system: lymphoma CSC (c-Kit+Sca-1+ TGB lymphoma cells); assay: Colony formation (CFU) assay of TGB lymphoma cells in 1% methylcellulose medium; assay type: cell-based, mouse; details: for effect on lymphoma CFU (colony number): cultured lymphoma cells treated 24 hours with pharmacologically effective doses (echinomycin: low doses), drugs washed away
Description: FIG. 2. HIF addiction of CSC. a. Selective ablation of lymphoma CFU by echinomycin. The cultured lymphoma cells were treated with given doses of pharmacologically effective drugs in medium for 24 hours. After washing away the drugs, the cells were cultured in 1% methylcellulose-containing medium, and the colony number was counted after 6 to 7 days. Data shown are means and SD of triplicates and have been confirmed by 3 independent experiments. b. A reporter system for HIF activity in the TGB lymphoma. Diagram of lentiviral construct for HIF activity is shown on the top. Pause, a sequence fragment to eliminate the effect of lentiviral promoter; HRE, Hypoxia response element (SEQ ID NO: 20); TATA, TATA sequence (TATATAAT) (top). Lower left, validation of the reporter. HEK293 cells were transiently transfected with cDNA encoding mutant HIF1α (P402A/P577A) or vector control in conjunction with either HRE-driven EGFP reporter, HRE mutant reporter (SEQ ID NO: 21). The cells were analyzed by flow cytometry to detect EGFP expression 36 hours after transduction. […] IC50 of echinomycin in the inhibition of HIF1α activity in lymphoma CSC. The lymphoma cells transfected with the HRE reporter system were cultured in the presence of different concentration of echinomycin for 12 hours, the % of c-Kit^+GFP^+ cells was normalized against the untreated group (1.13%, which was defined as 100%). […] Selectivity of HIF inhibitor for CFU of lymphoma CSC over the CFU from hematopoietic progenitor cells. c-Kit^+Sca-1^+ cells from either TGB or normal bone marrow were treated with given concentration of echinomycin overnight prior to plating in the medium containing 1% methylcellulose for CFU assay. The data shown were % of untreated controls, and were means+/−S.D. of triplicates. e. Therapeutic effect of a low dose of echinomycin. Cultured lymphoma cells (1×10^6/mouse) were injected i.p. into immune competent B10.BR mice. Fourteen days later, 10 μg/Kg/Injection of echimomycin was injected at a two-day interval for a total of 5 times. Control mice received vehicle only. The mice were observed daily for survival.
FIG. 6. HIF works in concert with Notch pathway to maintain CSC. a. Inhibition of colony-forming activity of CSC. The cultured lymphoma cells were treated with given doses of L685, 458 for 24 hours. After that, the cells were cultured in 1% methylcellulose-containing medium, and the colony number was counted after 6 to 7 days. Data shown are means+/−SD of triplicate samples and are representative of those of at least 3 independent experiments. b. Enhanced Notch activity in CSC, as indicated by the levels of Hes1 transcripts. The lymphoma cells from spleen with tumor in TGB transgenic mouse were sorted into c-kit^+Sca-1^+ or c-kit^−Sca-1^− fractions. The expressions of Hes1αnd mRNA in these two fractions were measured by real time PCR. c. Inhibition of Notch activity by 3 distinct HIF inhibitors. Cultured TGB lymphoma cells were stained with APC conjugated anti-c-Kit-antibody and enriched twice using anti-APC coated MACS beads according to manufacturer's protocol (Militenyi Biotec). The c-kit positive cells-enriched samples (60.4% c-Kit^+ cells) were treated with inhibitors of HIF for 16 hours. The mRNA from the treated cells were extracted for quantitation by real-time PCR. Data shown are means+/−SD of triplicates and represent those from at least 3 independent experiments. 2ME2, 2-methoxyestradiol; GA, geldamycin. d-g. […] A truncated Notch gene with potent dominant negative activity in inhibiting the expression of Notch target gene Hes. […] The right panel show dominant inhibition of Hes expression. After three consecutive transductions by either vector control or the dRdA1-4dOP mutant, the RNA were isolated and the transcripts of Hes measured by quantitative PCR. Data shown are means of triplicates and have been reproduced by two independent experiments. e. Notch I-C deltaRAM abrogates the c-Kit^+Sca-1^+ subset. […]

TGB lymphoma = assay: In vivo tumorigenicity / therapy of transplanted TGB lymphoma in B10.BR mice (survival); details: 9×10^5 lymphoma cells i.p., 5 injections at two day interval from day 8; less efficacy than echinomycin (FIG. 12b)
Description: FIG. 2. HIF addiction of CSC. a. Selective ablation of lymphoma CFU by echinomycin. The cultured lymphoma cells were treated with given doses of pharmacologically effective drugs in medium for 24 hours. After washing away the drugs, the cells were cultured in 1% methylcellulose-containing medium, and the colony number was counted after 6 to 7 days. Data shown are means and SD of triplicates and have been confirmed by 3 independent experiments. b. A reporter system for HIF activity in the TGB lymphoma. Diagram of lentiviral construct for HIF activity is shown on the top. Pause, a sequence fragment to eliminate the effect of lentiviral promoter; HRE, Hypoxia response element (SEQ ID NO: 20); TATA, TATA sequence (TATATAAT) (top). Lower left, validation of the reporter. HEK293 cells were transiently transfected with cDNA encoding mutant HIF1α (P402A/P577A) or vector control in conjunction with either HRE-driven EGFP reporter, HRE mutant reporter (SEQ ID NO: 21). The cells were analyzed by flow cytometry to detect EGFP expression 36 hours after transduction. […] IC50 of echinomycin in the inhibition of HIF1α activity in lymphoma CSC. […]
Given numbers of total tumor cells or sorted subsets were injected into either immune competent B10.BR mice or RAG-2^−/−BALB/c mice. […] The therapeutic effects were analyzed by Kaplan Meier survival analysis.

[2] = system: lymphoma CSC (c-Kit+Sca-1+ TGB lymphoma cells); assay: Colony formation (CFU) assay of TGB lymphoma cells in 1% methylcellulose medium; assay type: cell-based, mouse; details: first and second rounds of sorted cells, 1000/well, drug 24 hours, colonies counted after 5 days
[3] = colonies counted after 6 to 7 days

| Structure (SMILES) | effect on lymphoma CFU (colony number) [1, 3] | other results |
| --- | --- | --- |
| OCC1OC(O)CC(O)C1O (stereo not shown) [2-DG] | no effect | – |
| COc1cc2c(cc1O)CC[C@@H]1[C@@H]2CC[C@]2(C)[C@@H](O)CC[C@@H]12 [2-methoxyestradiol] | – | tumor initiation of CSC (TGB lymphoma): reduced; CFU of CSC ([1]; less efficacy than echinomycin (FIG. 12a)): reduced; inhibition of colony formation of sorted c-Kit+Sca-1+ tumor cells [2]: Inhibition |
| COc1ccc2c(c1)c(C1=C(c3c[nH]c4ccccc34)C(=O)NC1=O)cn2CCCN(C)C [Gö6983] | no effect | – |
| O=S(=O)(NCCNC/C=C/c1ccc(Br)cc1)c1cccc2cnccc12 [H89] | no effect | – |
| CC(C)C[C@H](NC(=O)[C@H](Cc1ccccc1)C[C@@H](O)[C@H](Cc1ccccc1)NC(=O)OC(C)(C)C)C(=O)N[C@@H](Cc1ccccc1)C(N)=O [L-685, 458] | – | colony forming activity of lymphoma CSC ([1]; given doses for 24 hours, colonies counted after 6 to 7 days): potently blocked |
| O=c1cc(N2CCOCC2)oc2c(-c3ccccc3)cccc12 [Ly294002] | no effect | – |
| COc1cccc(-c2cc(=O)c3ccccc3o2)c1N [PD98059] | no effect | – |
| S=C(S)N1CCCC1 [PDTC] | no effect | – |
| CO[C@H]1C[C@@H]2CC[C@@H](C)[C@@](O)(O2)C(=O)C(=O)N2CCCC[C@H]2C(=O)O[C@H]([C@H](C)C[C@@H]2CC[C@@H](O)[C@H](OC)C2)CC(=O)[C@H](C)/C=C(\C)[C@@H](O)[C@@H](OC)C(=O)[C@H](C)C[C@H](C)/C=C/C=C/C=C/1C [Rapamycin] | no effect | – |
| C[S+]([O-])c1ccc(-c2nc(-c3ccncc3)c(-c3ccc(F)cc3)[nH]2)cc1 (stereo not shown) [SB203580] | no effect | – |
| Cn1cc(C2=C(c3ccc(Cl)cc3Cl)C(=O)NC2=O)c2ccccc21 [SB216763] | no effect | – |
